Data on 34 compounds can be found in patent US11420934B2, “PPAR agonists” (Salk Institute for Biological Studies, priority 2013, dated 2022).

Structures are written as SMILES. Like-named read-outs stand apart in the source and are kept apart here.

The target in one data set is T1, PPARδ (Homo sapiens, UniProt Q03181).
T1 construct: expressed in transfected cells; host or cells: PathHunter NHR cell lines
T1 sequence (Q03181 1-441): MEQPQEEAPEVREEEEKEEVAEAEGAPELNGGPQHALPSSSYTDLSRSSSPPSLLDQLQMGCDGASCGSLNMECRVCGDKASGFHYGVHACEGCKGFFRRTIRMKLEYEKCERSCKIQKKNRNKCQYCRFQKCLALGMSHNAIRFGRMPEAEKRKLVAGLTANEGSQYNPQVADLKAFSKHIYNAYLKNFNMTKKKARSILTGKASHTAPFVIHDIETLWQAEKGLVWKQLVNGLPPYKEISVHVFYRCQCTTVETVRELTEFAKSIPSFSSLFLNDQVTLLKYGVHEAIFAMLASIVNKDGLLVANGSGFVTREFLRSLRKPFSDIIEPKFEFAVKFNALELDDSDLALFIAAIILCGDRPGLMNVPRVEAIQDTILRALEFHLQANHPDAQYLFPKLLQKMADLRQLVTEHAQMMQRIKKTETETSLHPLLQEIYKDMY
Kind of data set: Nuclear Hormone Receptor (NHR) protein interaction assay (PathHunter), agonist format. Format: cell-based. How it is done: PathHunter NHR cell lines were expanded from freezer stocks according to standard procedures. Cells were seeded in a total volume of 20 μL into white walled, 384-well microplates and incubated at 37° C. for the appropriate time prior to testing. Assay media contained charcoal-dextran filtered serum to reduce the level of hormones present.
For agonist determination, cells were incubated with sample to induce response. Intermediate dilution of sample stocks was performed to generate 5× sample in assay buffer. 5 μL of 5× sample was added to cells and incubated at 37° C. or room temperature for 3-16 hours. Final assay vehicle concentration was 1%.
Microplates were read following signal generation with a PerkinElmer Envision™ instrument for chemiluminescent signal detection.
Compound activity was analyzed using CBIS data analysis suite (ChemInnovation, CA). For agonist mode assays, percentage activity was calculated using the following formula: % Activity=100%×(mean RLU of test sample−mean RLU of vehicle control)/(mean MAX control ligand−mean RLU of vehicle control).

A short description of data set [1]: Pharmacokinetics in CD-1 mice. Format: in vivo. How it is done: (§1) In this example, the PK profile of several PPARδ agonists disclosed herein in male CD-1 mice or Wistar rats was determined. Similar methods can be used to analyze other compounds provided herein.
(§2) (quantity sufficient i.e. made up to a final volume of 100% with water). All compounds were separately administered to CD-1 mice at 3 mg/kg iv or 10 mg/kg po.
(§3) The concentration of the compound in plasma was determined, as illustrated in FIGS. 9A-9E.

Data set [2] can be described thus: Pharmacokinetics in Wistar rats. Format: in vivo. The note with it: male Wistar rats. How it is done: as §1, §2, §3
The format of data set [3] is in vitro ADME.
The test system of the next data set is FGF1a promoter. Kind of data set: Luciferase reporter assay of FGF1a promoter co-transfected with PPARδ. Format: cell-based. Particulars: with ligand. (In general: Reporter assays use an easily measured gene product as a stand-in for the process of interest.)
Another data set concerns thermal injury to the TA. Kind of data set: Muscle regeneration after thermal (freeze burn) injury to the TA, oral GW501516. Format: in vivo, C57BL6J mice. As for the experimental part: A stainless steel […] (Mettler-Toledo) equilibrated to the temperature of dry ice was placed directly on the exposed TA for 10 seconds. Following the thermal injury, incision was closed using VetBond (3M). All injury procedures were performed on the left leg, and the right leg was used as control.
Sterile 1% w/v Evans Blue dye in PBS was intraperitoneally injected at 1% volume relative to the body mass of an animal. 7 hours after the injection, injured TA muscles were harvested and snap-frozen by isopentane quenching in liquid nitrogen. Frozen sections were cut in 10 μm thickness, fixed in ice-cold acetone, dipped in xylene and mounted with DPX. Proportion of the stained area over the total area was measured using ImageJ software.
50 mg/kg body weight of BrdU (Sigma) was injected intraperitoneally as solution of 10 mg/mL BrdU in saline. TA muscles were harvested at 7 days after injury and processed for paraffin sections as described above. BrdU incorporation was visualized using the BrdU Labeling and Detection Kit I (Roche) and BrdU+ nuclei were counted and represented as a proportion of total nuclei in a field.
Whole or partial tissues were homogenized by Polytron probe homogenizer in Trizol reagent (Invitrogen). Total RNA was extracted from the homogenates according to the manufacturer's protocol. 1 μg of DNase-treated total RNA was reverse transcribed using Superscript II Reverse Transcriptase (Invitrogen) according to the manufacturer's instructions. cDNAs were diluted 1/40 with ddH2O and used as templates in RT-QPCR reactions with SYBRGreenER qPCR SuperMix detection system (Invitrogen). Samples were prepared in technical triplicates and relative mRNA levels were calculated by using the standard curve methodology and normalized against GAPDH mRNA levels in the same samples.

The next data set has as its system AKO mice. Briefly: GW treatment in mouse model of ALD (AKO mice). Format: in vivo. From the text:
ALD is a rare genetic disorder caused by defects in peroxisomal oxidation of very long-chain fatty acids (VLCFAs), resulting in systemic accumulation of VLCFAs, which causes tissue defects mainly in the central nervous system and the adrenal glands. The majority of VLCFAs in the body are endogenously synthesized from long-chain fatty acids (LCFAs). Therefore, one potential way to prevent VLCFA accumulation in ALD is by inducing mitochondrial LCFA oxidation to reduce the availability of LCFAs for VLCFA biosynthesis. In order to test this, a previously described mouse model of ALD was used, in which the X-linked adrenoleukodystrophy gene abcd1 was systemically ablated and the knockout (AKO) mice faithfully recapitulated the abnormal VLCFA accumulation phenotype seen in ALD patients.
3-month-old AKO mice were treated with or without GW and their tissues collected for free FA analysis using GC/MS.

[4] abbreviates: Tables 7-16, read-out: NHR protein interaction assay, EC50 (nM) for PPARδ.

By EC50 is commonly meant the concentration giving half of the maximal effect.

On to `CC(C)N(Cc1ccccc1OCCCCCC(=O)O)C(=O)c1ccc(Cl)cc1` [Compd 125], for which the EC50 on PPARδ (setting [4]) came to 291 nM.

In the case of `CC(C)N(Cc1ccccc1OCCCCCC(=O)O)C(=O)c1ccc(N(C)C)cc1` [Compd 128], the EC50 at PPARδ (setting [4]) was 5390 nM. Take `Cc1ccc(C(=O)N(Cc2ccccc2OCCCCCC(=O)O)C(C)C)cc1` [Compd 131]: the EC50 on PPARδ (setting [4]) was found to be 1610 nM. The same measure, in the same setting: the value for `CC(C)N(Cc1ccccc1OCCCCCC(=O)O)C(=O)c1ccc(C#CC2CC2)cc1` [Compd 245] was 10.5 nM. As to `Cc1cc(SCc2sc(-c3ccc(C(F)(F)F)cc3)nc2C)ccc1OCC(=O)O` [GW501516], the Kel is 0.11 h⁻¹ in data set [1] (3 mg/Kg i.v.) and 0.09 h⁻¹ in data set [2] (3 mg/Kg i.v.). The F was 82.1% in data set [1] (10 mg/Kg p.o.) and about 100% in data set [2] (10 mg/Kg p.o.). In addition, the “% Parent remained at 15 min, MLM” value in data set [3] is recorded as 93/76%. Moreover, the “% Parent remained at 60 min, MLM” value in data set [3] was 93/76%. Moreover, the “induction of FGF1a (luciferase reporter)” value in the data set on FGF1a promoter was “induction of FGF1a”. In addition, the “Evans Blue dye uptake, proportion of muscle cross sectional area (CSA) stained” value with thermal injury to the TA (5 mg/kg orally, 4 days prior to and 5 days after injury, 5 days after the injury, vehicle 7.6%) amounted to 4.9%. The “expression of inflammatory marker genes by QPCR” value in the data set with thermal injury to the TA (3 days after the injury) is on record as “significantly reduced”. Further, the “reduction in the proportion of stained area” value in the data set with thermal injury to the TA (5 days after the injury, versus vehicle) was found to be 34.7%. Moreover, the “PPARδ target genes (PDK4, CPT1b, catalase) expression in TA by QPCR” value in the data set with thermal injury to the TA (9 day treatment) is “Up-regulation”. Also, the “number of quiescent satellite cells” value with thermal injury to the TA (after 9 days or 4 weeks of ligand treatment) was “an increase in the number of quiescent satellite cells was not observed”. Take `Cc1cc(SCc2sc(-c3ccc(C(F)(F)F)cc3)nc2C)ccc1OCC(=O)O` [GW]: the “liver C26:0” value in the data set with AKO mice (8 weeks of GW treatment) is recorded as “cleared in most GW-treated animals”. In the data set with AKO mice (8 weeks of GW treatment, GC/MS), the “levels of VLCFAs (C22:0, C23:0, C24:0, C26:0) in AKO brain and liver” value is given as “significantly reduced”. Further, in the data set on AKO mice (GW treatment), the “expression of mitochondrial FA oxidation genes (Cpt1a, 1b, Slc25a20, Acadl) in AKO liver and skeletal muscle” value is recorded as “dramatically induced”; the “saturated LCFAs C12:0 to C22:0 and total FAs in liver and muscle” value is given as “significantly reduced”. For the compound `COc1ccc(C(=O)N(Cc2ccccc2OCCCCCC(=O)O)C(C)C)cc1` [compound 126], on PPARδ (setting [4]), the EC50 was 1300 nM. As for `CC(C)N(Cc1ccccc1OCCCCCC(=O)O)C(=O)c1ccc(OC(F)(F)F)cc1` [compound 127], at PPARδ (setting [4]), the EC50 stood at 44.6 nM. Same read-out and setting: the value for `CC(=O)c1ccc(C(=O)N(Cc2ccccc2OCCCCCC(=O)O)C(C)C)cc1` [compound 129] was 5070 nM. On PPARδ, `CC(C)N(Cc1ccccc1OCCCCCC(=O)O)C(=O)c1ccc(S(C)(=O)=O)cc1` [compound 130] returned an EC50 of over 10000 nM. Consider `CC(C)N(Cc1ccccc1OCCCCCC(=O)O)C(=O)c1ccc(F)cc1` [compound 132], for which the EC50 on PPARδ (setting [4]) came to 2180 nM.

Turning to `CC(C)N(Cc1ccccc1OCCCCCC(=O)O)C(=O)c1ccc(OC2CC2)cc1` [compound 134], the EC50 on PPARδ is over 10000 nM. `CC(C)N(Cc1ccccc1OCCCCCC(=O)O)C(=O)c1ccc(N2CCCC2)cc1` [compound 136]: the EC50 at PPARδ (setting [4]) was 352 nM. Same read-out and setting: in the case of `CC(C)N(Cc1ccccc1OCCCCCC(=O)O)C(=O)c1ccc(C#N)cc1` [compound 151] it was 894 nM. `CC(C)N(Cc1ccccc1OCCCCCC(=O)O)S(=O)(=O)c1ccc(-c2ccco2)cc1` [compound 152] gave an EC50 on PPARδ of over 10000 nM.

In the case of `CC(C)N(Cc1ccccc1OCCCCCC(=O)O)C(=O)c1ccc(-c2ccco2)cn1` [compound 153], on PPARδ, a half-maximal effect (EC50) was put at 206 nM. Same read-out and setting: the value for `CC(C)N(Cc1ccccc1OCCCCCC(=O)O)C(=O)c1ccc(-c2ccco2)nc1` [compound 155] was 26.1 nM; that for `CC(C)N(Cc1ccccc1OCCCCCC(=O)O)C(=O)c1cnc(-c2ccco2)s1` [compound 156] was 143 nM; that for `CC(C)N(Cc1ccc(-c2ccco2)cc1)C(=O)c1ccccc1OCCCCCC(=O)O` [compound 157] was over 10000 nM. Same read-out and setting: the value for `CC(C)N(C(=O)Cc1ccccc1OCCCCCC(=O)O)c1ccc(-c2ccco2)cc1` [compound 158] was over 10000 nM. On the same count and under the same terms, the value for `O=C(O)CCCCCOc1ccccc1CN(CC(F)(F)F)C(=O)c1ccc(-c2ccco2)cc1` [compound 177] was 12.1 nM; that for `COCCN(Cc1ccccc1OCCCCCC(=O)O)C(=O)c1ccc(-c2ccco2)cc1` [compound 178] was 79.4 nM. At PPARδ, `O=C(O)CCCCCOc1ccccc1CNC(=O)c1ccc(-c2ccco2)cc1` [compound 179] showed an EC50 of 485 nM.

Regarding `CC(C)N(Cc1cc(Br)ccc1OCCCCCC(=O)O)C(=O)c1ccc(-c2ccco2)cc1` [compound 202], the EC50 at PPARδ (setting [4]) is 7.3 nM. For the compound `Cc1ccc(OCCCCCC(=O)O)c(CN(C(=O)c2ccc(-c3ccco3)cc2)C(C)C)c1` [compound 203], on PPARδ (setting [4]), the EC50 was 7.1 nM. The same measure, in the same setting: the value for `CC(C)N(Cc1cc(F)ccc1OCCCCCC(=O)O)C(=O)c1ccc(-c2ccco2)cc1` [compound 204] was 24.6 nM. For the compound `CC(C)N(Cc1cc(C#N)ccc1OCCCCCC(=O)O)C(=O)c1ccc(-c2ccco2)cc1` [compound 205], the EC50 at PPARδ amounted to 224 nM.

For the compound `COc1ccc(OCCCCCC(=O)O)c(CN(C(=O)c2ccc(-c3ccco3)cc2)C(C)C)c1` [compound 206], the EC50 at PPARδ (setting [4]) was determined as 5.1 nM. `CC(C)N(Cc1cccnc1OCCCCCC(=O)O)C(=O)c1ccc(-c2ccco2)cc1` [compound 207] returned an EC50 on PPARδ of 19.4 nM. Still for that read-out and setting: the value for `CC(C)N(Cc1ccccc1OCCCCc1nn[nH]n1)C(=O)c1ccc(-c2ccco2)cc1` [compound 219] was 338 nM. Turning to `CC(C)N(Cc1ccccc1OCCCCCCC(=O)O)C(=O)c1ccc(-c2ccco2)cc1` [compound 220], the EC50 on PPARδ (setting [4]) turned out to be 512 nM. For `CC(C)N(Cc1ccccc1OCCCOCC(=O)O)C(=O)c1ccc(-c2ccco2)cc1` [compound 221], the EC50 at PPARδ worked out at 1300 nM. `O=C(O)CCCCCOc1ccccc1CN(Cc1ccccc1)C(=O)c1ccc(-c2ccco2)cc1` [compound 247]: the EC50 at PPARδ (setting [4]) was 18.8 nM. On the same count and under the same terms, the value for `CN(Cc1ccccc1OCCCCCC(=O)O)C(=O)c1ccc(C#CC2CC2)cc1` [compound 248] was 21.1 nM.
